Test results from article PMC11382352 (Drug development research, 2019).
Converted amounts (≈) assume the structure as drawn. Read-outs that look alike come from different tables or passages of the source.

Test system: Mycobacterium tuberculosis H37Rv
Assay: Microtiter dilution MIC assay in GAST-Fe and 7H9-based media
Format: cell-based
Details: for MIC (Gast/Fe) Week 2: GAST-Fe medium pH 6.6, read after week 2; for MIC (Gast/Fe) Week 1: GAST-Fe medium pH 6.6, read after week 1; for MIC: Mycobacterium tuberculosis, H37RV

## Clc1cccc(NCc2ccc(Oc3ccccn3)cc2)c1 [Compound 2h, 3-chloro-N-(4-(pyridin-2-yloxy)benzyl) aniline]
  MIC (Gast/Fe) Week 2: 40 µM (≈ 12.4 µg/mL)

## Clc1ccccc1NCc1ccc(Oc2ccccn2)cc1 [Compound 2i, 2-chloro-N-(4-(pyridin-2-yloxy)benzyl) aniline]
  MIC (Gast/Fe) Week 1: 20 µM (≈ 6.22 µg/mL)
  MIC (Gast/Fe) Week 2: 20 µM (≈ 6.22 µg/mL)

## Oc1cc(Cl)ccc1Oc1ccc(Cl)cc1Cl [Triclosan, 2,4,4׳- trichloro- 2׳- hydroxy diphenyl ether, reference compound]
pH 6.6, read-out: MIC (Gast/Fe) Week 1
  MIC: 43 µM (≈ 12.5 µg/mL)
pH 6.6, read-out: MIC (Gast/Fe) Week 2
  MIC: 43 µM (≈ 12.5 µg/mL)
read-out: MIC (7H9/ADC/Tween) Week 1
  MIC: 22 µM (≈ 6.37 µg/mL)
read-out: MIC (7H9/ADC/Tween) Week 2
  MIC: 43 µM (≈ 12.5 µg/mL)

## c1ccc(NCc2ccc(Oc3ccccn3)cc2)cc1 [Compound 2a, N-(4-(pyridin-2-yloxy)benzyl) aniline]
  MIC (Gast/Fe) Week 2: 37 µM (≈ 10.2 µg/mL)

## Cc1ccc(NCc2ccc(Oc3ccccn3)cc2)cc1 [Compound 2d, 4-methyl-N-(4-(pyridin-2-yloxy)benzyl) aniline]
  MIC (Gast/Fe) Week 1: 22 µM (≈ 6.39 µg/mL)

## Clc1ccc(NCc2ccc(Oc3ccccn3)cc2)cc1 [Compound 2g, 4-chloro-N-(4-(pyridin-2-yloxy)benzyl) aniline]
  MIC (Gast/Fe) Week 2: 40 µM (≈ 12.4 µg/mL)

## Brc1cccc(NCc2ccc(Oc3ccccn3)cc2)c1 [Compound 2m, 3-bromo-N-(4-(pyridin-2-yloxy)benzyl) aniline]
  MIC (Gast/Fe) Week 2: 35 µM (≈ 12.4 µg/mL)

## COc1cccc(NCc2ccc(Oc3ccccn3)cc2)c1 [Compound 2c, 3-methoxy-N-(4-(pyridin-2-yloxy)benzyl) aniline]
  MIC (Gast/Fe) Week 2: 37 µM (≈ 11.3 µg/mL)

## Fc1ccc(NCc2ccc(Oc3ccccn3)cc2)cc1 [Compound 2j, 4-fluoro-N-(4-(pyridin-2-yloxy)benzyl) aniline]
  MIC (Gast/Fe) Week 2: 25 µM (≈ 7.36 µg/mL)
